In US7902174B2, “Antiviral composition” (priority 2009, dated 2011):
Several values for one entry are separate records, joined by “and”; a condition that tells them apart may be missing. Equal entries are not always repeated.

Columns and labels:
[1] = tested on: Sprague-Dawley rats; test: In vivo toxicity study in rats, oral administration (gavage); conditions: increasing amounts up to 2 g/kg body weight
Description: (b) Oral Administration: Sprague-Dawley rats weighing approximately 250 g were orally gavaged with increasing amounts of polysulfate polymethylsulfate dextrin dissolved in sterile water up to a dose of 2 g/kg body weight.

[2] = tested on: Human Immunodeficiency Virus; test: Anti-HIV testing in cell culture: inhibition of cell-to-cell transmission of HIV measured as p24 protein production; type: cell-based; conditions: for MEAN P24 value: mean of three tests; for % VIRAL CONCENTRATION: relative to 0.0 μM = 100.0; for P24 value as measurement of HIV concentration: separate efficacy tests (samples 1-3)
Experimental: Testing was performed independently at the NIH using standard testing protocol.

polysulfate polymethylsulfate dextrin
toxic effects after oral administration [1]: No toxic effects
MEAN P24 value ([2]; 0.32 μM): 664.0 pg/mL
% VIRAL CONCENTRATION ([2]; 0.32 μM): 96.1%
P24 value as measurement of HIV concentration ([2]; 0.32 μM): 672.3 pg/mL and 654.6 pg/mL and 665.0 pg/mL
MEAN P24 value ([2]; 1.0 μM): 371.5 pg/mL
% VIRAL CONCENTRATION ([2]; 1.0 μM): 53.7%
P24 value as measurement of HIV concentration ([2]; 1.0 μM): 407.1 pg/mL and 351.2 pg/mL and 356.1 pg/mL
MEAN P24 value ([2]; 3.2 μM): 5.5 pg/mL
% VIRAL CONCENTRATION ([2]; 3.2 μM): 0.8%
MEAN P24 value ([2]; 10 μM): -6.1 pg/mL
% VIRAL CONCENTRATION ([2]; 10 μM): −0.9%
MEAN P24 value ([2]; 32 μM): -8.8 pg/mL
% VIRAL CONCENTRATION ([2]; 32 μM): −1.3%
MEAN P24 value ([2]; 100 μM): -27 pg/mL
% VIRAL CONCENTRATION ([2]; 100 μM): −3.9%
IC50 ([2]; average of three separate tests, p24 production, cell-to-cell transmission of HIV, read-out: calculated 50% inhibition (IC50) / average inhibitory concentration 50%): 1160 nM
